Results on one molecule are retold here after patent US20230047208A1, “RNA Splicing Modulation” (The General Hospital Corporation, priority 2020, published 2023).

Experiment [1] deals with SETD5 minigene, Exon X. Put plainly: SETD5 minigene splicing assay, RT-PCR. It is filed as cell-based. The note with it: mutated SETD5 minigene. The source says:
(§1) FIGS. 3E-3G Upper row: The length of the exon triplets cloned into minigenes constructs are shown. The flanking sequences of the 5′ splice sites of Exon X are shown in LOGO plots. The height of each nucleotide was estimated using in silico saturated mutagenesis, with the corresponding closely matched CNN Motifs indicated below the plots. […] Middle row: Splicing changes for Exon X in both wildtype and mutated exon triplets, predicted by the CNN model (left) and measured by RT-PCR of the minigene (right). The RT-PCR experiments were performed in duplicate and independently repeated three times for each minigene to make the bar plots (two-tailed, unpaired Student's t test). Bottom row: Example of splicing changes induced by treatment with Compound (I) in the minigene splicing assays. The percentage for Exon X inclusion is indicated beneath each lane, from treated and untreated conditions in both wildtype and mutated minigenes. […] The statistical significance, as shown in FIGS. 3E-3G, was determined via two-tailed, unpaired Student's test: *p<0.05; **p<0.01; ***p<0.001. […]
(§2) Wild-type and mutant double-stranded DNA (dsDNA) fragments, selected based on low nucleotide length and exon-skipping probability, were ordered through GENEWIZ (FragmentGENE). […] Concentrations were determined using a nanodrop spectrometer.

Experiment [2] relates to PARP6 minigene, Exon X. Put plainly: PARP6 minigene splicing assay, RT-PCR. It is filed as cell-based. The conditions noted are these: mutated PARP6.
From the text: as §1, §2

Experiment [3] relates to CFTR protein. Kind of experiment: CFTR western blot, mature CFTR protein in Flp-In-293 cells stably expressing c.2988G>A. The experiment is classed as cell-based, human. The note with it: Flp-In-293 c.2988G>A stable cells, 60 μM, 5 days. How it is done:
For CFTR WB, 40 μg of protein lysate was separated on 7.5% Criterion TGX protein gel (BioRad) and transferred to a PVDF membrane using a Trans-Blot Turbo Transfer System (BioRad). After blocking in 5% non-fat dry milk (BioRad), the membrane was probed with mouse monoclonal anti-CFTR antibody (1:5000 in PBST) that recognizes amino acids 1204-1211 (596, CFFT, North Carolina Chapel Hill). Rabbit monoclonal anti-Na+K+ ATPase (Abcam) (1:50,000 in PBST) was used as a loading control. Secondary antibodies were anti-mouse (1:150,000 GE Healthcare) and anti-rabbit (1:100,000 GE Healthcare), respectively. Blots were exposed on film using ECL Primer Western Blotting Detection Reagent (GE Healthcare)
WT CFTR-EMG-i14-i18, CFTR-EMG-i14-i18 harboring c.2988G>A, Flp-In-CFBE, and Flp-In-293 cells stably expressing WT-EMG and c.2988G>A EMG were generated. Both Flpin-293 and Flp-In-CFBE cells lack endogenous CFTR expression (CFBE41o-) and contain a single Flp recombinase target site. Co-transfection of EMG plasmid with pOG44 (a plasmid encoding Flp recombinase) allowed for genomic integration at the FRT site. Hygromycin was used for stable cell selection.
CFTR protein levels was assessed in Flp-In-293 cells stably expressing the c.2988G>A splicing variant after treatment with Compound (I) for 5 days. […]
(A western blot detects proteins with antibodies after separation by electrophoresis.)

Molecules are shown by their SMILES.

Take `Clc1nc(NCc2ccncc2)c2cc[nH]c2n1` [Compound (I), 2-chloro-N-(pyridin-4-ylmethyl)-7H-pyrrolo[2,3-d]pyrimidin-4-amine]: the “Exon X splicing response confirmed by RT-PCR” value was “exclusion” in experiment [1] and “inclusion” in experiment [2]. The “amount of mature CFTR protein” value in experiment [3] is reported as ~20 % of WT.
